Results taken from patent US5447716A, “Process for lightening the skin or treating pigmental blemishes using a composition containing benzomorpholine or 3,4-dihydro-2H-1,4-benzoxazine derivatives” (L'Oreal, priority 1993, dated 1995).

How the values were obtained:
fungal tyrosinase = assay: in vitro inhibition test of the activity of tyrosinase (dopachrome formation at 475 nm); assay type: biochemical; details: inhibitor at 50 mol % with respect to tyrosine; L-dopa co-substrate; pH 6.5, 25° C.; lowering in maximum dopachrome (OD 475 nm at plateau) vs no inhibitor
Excerpt: Some of the compounds of general formula (I) have been studied in comparison with an equivalent molar amount of hydroquinone in the in vitro inhibition test of the activity of tyrosinase.
According to this test, the amount of dopachrome formed during the chain of reactions of conversion of tyrosine to melanins is monitored by visible spectrometry at 475 nm. These reactions are catalyzed in vitro by fungal tyrosinase, in the presence of a reducing co-substrate (for example, a small amount of L-dopa) in order to initiate the hydroxylation reaction of L-tyrosine to L-dopa, which is then catalytically oxidized to dopaquinone and then to dopachrome, an intermediate product before the non-enzymatic oxidation reactions which result in the formation of melanins.
The concentration of dopachrome formed with time in the presence and in the absence of the inhibitor is thus measured.
The inhibitor concentrations are set at 50 mol % with respect to the concentration of tyrosine in the reaction medium.
The inhibition effect is expressed by the lowering in the maximum amount of dopachrome formed (optical density value at 475 nm read at the plateau of the curve) with respect to the amount obtained in the absence of inhibitor.
A--0.1M Phosphate buffer, pH=6.5 (1% Tween 20)
B--2·10^-3 M Mother solution of L-tyrosine in A
C--10^-4 M Mother solution of L-dopa in A
D--Mother solution of fungal tyrosinase in A containing 2,400 units/ml
E--10^-2 M Mother solution of the inhibitor in A (Solutions C and D are to be prepared on the day)
reference cell: 3 ml of A
homogenize and equilibrate at 25° C.
mix rapidly and observe the kinetics by measuring the absorbance at 475 nm as a function of time.

[1] = in words, background; cited from earlier work
melanocytes = details: in words, background; cited from earlier work

SMILES	% of inhibition (fungal tyrosinase)	irritation [1]	cytotoxicity for melanocytes (melanocytes)
Oc1ccc(O)cc1 [hydroquinone]	-33%	particularly irritating	cytotoxic
Oc1ccc2c(c1)NCCO2	-80%		
Oc1ccc2c(c1)OCCN2	-71%		
